Source: US6919374B1, “Viscosity modulating substance and use thereof” (Oklahoma Medical Research Foundation, priority 1999, dated 2005)
Entries after “also recorded” stand apart in the source; their conditions may differ. Where a SMILES comes first, the peptide text is derived from it.

Assays:
patient blood samples = test: Whole blood viscosity after in vitro addition of APM to patient blood samples; format: cell-based; details: HgBss patients; samples 480 minutes post-treatment; 1 or 2 milligrams/milliliter APM in vitro
Procedure: (§1) To measure viscosity, 1.01 cc of the test fluid, i.e., either water, saline or blood, was drawn into an RBC pipette using a 50 cc syringe attached via rubber tubing to the top of the RBC pipette. Using a constant pressure of 20 mm by maintaining the pressure with visual feedback and hand pressure, the amount of time it took for the test fluid to drip out of the RBC pipette was measured with a stopwatch. Each measurement was made in triplicate. Changes in viscosity from baseline for patient blood samples were recorded and compared to normal controls.
(§2) Samples with high viscosity readings at 480 minutes or 1,440 minutes post-treatment, chosen to represent patients with a validated response to APM who were returning to normal, were divided and treated with an additional 0, 1, or 2 milligrams/milliliter APM in vitro, in an effort to measure whether a second inducible sickling response was possible and if a second response to the in vitro APM addition could be observed. The viscosity of each sample at 480 minutes post-treatment was measured.

[1] = with the exception of patients suffering from phenylketonuria; cited from earlier work
[2] = clinical trial; osteo- and mixed osteo- and rheumatoid arthritis; cited from earlier work
[3] = tested on: sickle cells in HgBss blood; test: Sickling after in vitro addition of APM to patient blood; format: cell-based, patients
Procedure: as §2
Using metabisulfite to reduce HbS to the deoxy form (Daland, G. A. and Castle, W. B. 1948. J Lab Clin Med 33:1082-1088; Nelson, D. A. In Todd-Sanford-Davidsohn Clinical Diagnosis by Laboratory Methods, J. B. Henry, ed. (W.B. Saunders Co., Philadelphia, 1979, vol. 1, p. 1020), a baseline sickling test was run on each experimental sample. The sickling inducing agent was prepared fresh daily as follows: 10 milligrams metabisulfite in 1 milliliter isotonic saline. Multiple test slides were prepared for each experimental sample by adding approximately 300 microliters of the metabisulfite inducing agent to 50 microliters of well mixed blood and placing about 4 drops of the experimental sample onto the surface of a glass slide, placing a coverslip over the sample, and sealing the coverslip with a petroleum jelly bead to prevent oxygen from entering the sample. […]

[4] = tested on: whole blood of sickle cell patients; test: Whole blood viscosity by RBC pipette method before and after administration of APM to sickle cell patients; format: in vivo; details: for blood viscosity after treatment: baseline vs 120 minutes post-treatment, APM 1.5, 3 or 6 mg/kg body weight
Procedure: Blood samples were obtained from ten patients having homozygous HgBss disease or heterozygous Hgbsc disease before and after a blinded administration of APM at 1.5 (low dose), 3 (medium dose), or 6 (high dose) milligrams per kilogram body weight.
Viscosity determinations using the RBC pipette method of Wright and Jenkins (1970, Blood 36:516) were made on each blinded whole blood sample before and 120 minutes after blinded administration of APM. Each measurement was made in triplicate. Control viscosity measurements using saline and water for each patient and normal whole blood were also made to validate the viscosity measurements.
as §1

[5] = tested on: red blood cells containing HbS; details: WO 00/18418; cited from earlier work
[6] = tested on: sickle cells in HgBss blood; test: Metabisulfite slide test for sickling after APM given orally; format: in vivo, patients
Procedure: For comparative purposes, the number of sickle cells relative to the number of normal cells was obtained at 0, 30, 60, 120, 240, 480, and 1440 minutes after administration of APM according to the method given in Example 2.
Blood was drawn before and 120 minutes after treatment with 0, 1.5, 3, or 6 milligrams APM per kilogram body weight in a blinded fashion from the ten patients into heparin tubes, stored in a refrigerator at approximately 10° C. and routinely tested within 36 hours of collection.
Normal blood devoid of abnormal hemoglobin was used as a control. For each heparinized patient blood sample and the normal blood control, experimental samples were prepared containing 0.25 milliliters of normal saline and 0.25 milliliters of blood. […]
To account for natural or non-induced sickling of the experimental samples, a baseline sickling count was obtained for each heparinized patient blood sample and the normal blood control. […] Photomicrographs were taken with a phase contrast microscope at 400 magnification, and the results were obtained from the photomicrographs as the number of sickle cells per 100 cells counted. This number of sickle cells per 100 cells counted was considered the baseline sickling count and was subtracted from the cell counts obtained with the metabisulfite induced samples. […]

For `COC(=O)[C@H](Cc1ccccc1)NC(=O)[C@@H](N)CC(=O)O` [APM, N-L-alpha-aspartyl-L-phenylalanine 1-methyl ester] (H-Asp-Phe-OMe), the “viscosity of blood samples after in vitro APM addition, compared to the control” value (patient blood samples) is given as “decreased; also recorded: reduces”, the safety status [1] is given as “generally regarded as safe” and the “pain and inflammation of arthritis” value [2] is given as “alleviate the pain and inflammation”. For the same compound, the “number of sickle cells” value [3] was “reduces the number of sickle cells”, the “blood viscosity after treatment” value ([4]; HgBss patients) was “decreased; also recorded: reduces the viscosity” and the whole blood viscosity ([4]; in vivo) was “lowers whole blood viscosity”. The “viscosity compared against Pirofsky's change in viscosity vs. hematocrit standard” value ([4]; patients with sickle cell disease (HgBss)) was “decreased”, the “viscosity compared against Pirofsky's change in viscosity vs. hematocrit standard” value ([4]; patients with sickle cell trait (Hbgsc)) was “increased” and the “blood viscosity after treatment” value ([4]; sbthal patients) was “decreased”. The “capacity of red blood cells containing HbS to sickle with hypoxemia” value [5] was “reduction” and the “number of sickle cells” value [6] was “reduces the number of sickle cells”.
